Results taken from ChEMBL document CHEMBL1914411, “Synthesis of lipophilic dimeric C-7/C-7-linked ciprofloxacin and C-6/C-6-linked levofloxacin derivatives. Versatile in vitro biological evaluations of monomeric and dimeric fluoroquinolone derivatives as potential antitumor, antibacterial or antimycobacterial agents” (Eur J Med Chem, 2011).
≈ marks a conversion by molar mass, not a printed value. Calls of active or inactive are those of the source. No rule for the calls is given here.

What was measured:
Pseudomonas aeruginosa = assay: Antimicrobial activity against Pseudomonas aeruginosa CIP 82.118 after 18 to 24 hrs by broth microdilution method; type: functional
Escherichia coli = assay: Antimicrobial activity against Escherichia coli CIP 53126 after 18 to 24 hrs by broth microdilution method; type: functional
[1] = Antiproliferative activity against human U373MG cells after 120 hrs by MTT asasy; type: functional, cell-based, U-373MG ATCC; details: U373 MG
[2] = tested on: Mycobacterium tuberculosis; assay: Antimycobacterial activity against Mycobacterium tuberculosis H37Rv assessed as growth inhibition at 10 uM after 6 days by MTT colorimetric microassay; type: functional; details: 144 h, read-out: GI
Enterococcus hirae = assay: Antimicrobial activity against Enterococcus hirae CIP 5855 after 18 to 24 hrs by broth microdilution method; type: functional
[3] = tested on: Mycobacterium tuberculosis; assay: Antimycobacterial activity against Mycobacterium tuberculosis H37Rv assessed as growth inhibition at 1 uM after 6 days by MTT colorimetric microassay; type: functional; details: 144 h, read-out: GI
[4] = tested on: Mycobacterium tuberculosis; assay: Antimycobacterial activity against Mycobacterium tuberculosis H37Rv assessed as growth inhibition at 0.1 uM after 6 days by MTT colorimetric microassay; type: functional, organism-based
[5] = tested on: Mycobacterium tuberculosis; assay: Antimycobacterial activity against Mycobacterium tuberculosis H37Rv after 6 days by MTT colorimetric microassay; type: functional, organism-based; details: 144 h
Staphylococcus aureus [6] = assay: Antimicrobial activity against Staphylococcus aureus CIP 4.83 after 18 to 24 hrs by broth microdilution method; type: functional
Staphylococcus aureus [7] = assay: Antimicrobial activity against multidrug-resistant Staphylococcus aureus isolate 1 after 18 to 24 hrs by broth microdilution method; type: functional
Staphylococcus aureus [8] = assay: Antimicrobial activity against multidrug-resistant Staphylococcus aureus isolate 2 after 18 to 24 hrs by broth microdilution method; type: functional
Staphylococcus aureus [9] = assay: Antimicrobial activity against methicillin-resistant Staphylococcus aureus ATCC 33592 after 18 to 24 hrs by broth microdilution method; type: functional
Staphylococcus aureus [10] = assay: Ratio of ciprofloxacin MIC to compound MIC for multidrug-resistant Staphylococcus aureus isolate 1; type: functional
Staphylococcus aureus [11] = assay: Antimicrobial activity against methicillin-resistant Staphylococcus aureus ATCC 33591 after 18 to 24 hrs by broth microdilution method; type: functional
Staphylococcus aureus [12] = assay: Ratio of ciprofloxacin MIC to compound MIC for multidrug-resistant Staphylococcus aureus isolate 2; type: functional
MCF7 = assay: Antiproliferative activity against human MCF7 cells after 120 hrs by MTT asasy; type: functional, cell-based; details: MCF7, 120 h

CCCCCCCCCCCC(=O)OCOC(=O)c1cn2c3c(c(N4CCN(C)CC4)c(F)cc3c1=O)OC[C@@H]2C
MBC (Pseudomonas aeruginosa): 3.9 µM (≈ 2.24 µg/mL)
MIC (Pseudomonas aeruginosa): ≤ 0.97 µM
MBC (Escherichia coli): 3.9 µM (≈ 2.24 µg/mL)
MIC (Escherichia coli): 3.9 µM (≈ 2.24 µg/mL)
IC50 [1]: 0.2 µM
inhibition of growth at 10 µM [2]: > 95%
MBC (Enterococcus hirae): 1.9 µM (≈ 1.09 µg/mL)
MIC (Enterococcus hirae): 1.9 µM (≈ 1.09 µg/mL)
inhibition of growth at 1 µM [3]: 74%
growth inhibition (GI) [4]: inactive
IC50 [5]: 1.3 µM
MIC [5]: 2.5 µM (≈ 1.43 µg/mL)
MBC (Staphylococcus aureus [6]): ≤ 0.97 µM
MIC (Staphylococcus aureus [6]): ≤ 0.97 µM

CCCC(=O)OCC(=O)N1CCN(c2cc3c(cc2F)c(=O)c(C(=O)O)cn3C2CC2)CC1
MBC (Staphylococcus aureus [7]): 62.5 µM (≈ 28.7 µg/mL)
MIC (Staphylococcus aureus [7]): 15.6 µM (≈ 7.17 µg/mL)
MBC (Staphylococcus aureus [8]): 15.6 µM (≈ 7.17 µg/mL)
MIC (Staphylococcus aureus [8]): 15.6 µM (≈ 7.17 µg/mL)
MBC (Staphylococcus aureus [9]): 0.12 µM (≈ 0.0551 µg/mL)
MIC (Staphylococcus aureus [9]): 0.06 µM (≈ 0.0276 µg/mL)
Ratio (Staphylococcus aureus [10]): 2
MBC (Pseudomonas aeruginosa): 250 µM (≈ 115 µg/mL)
MIC (Pseudomonas aeruginosa): 62.5 µM (≈ 28.7 µg/mL)
MBC (Escherichia coli): 31.2 µM (≈ 14.3 µg/mL)
MIC (Escherichia coli): 31.2 µM (≈ 14.3 µg/mL)
MBC (Staphylococcus aureus [11]): 0.97 µM (≈ 0.446 µg/mL)
MIC (Staphylococcus aureus [11]): 0.48 µM (≈ 0.221 µg/mL)
MBC (Enterococcus hirae): ≤ 0.97 µM
MIC (Enterococcus hirae): ≤ 0.97 µM
growth inhibition (GI) [4]: inactive
Ratio (Staphylococcus aureus [12]): 2
MBC (Staphylococcus aureus [6]): ≤ 0.48 µM
MIC (Staphylococcus aureus [6]): ≤ 0.24 µM

O=C(CCCCCCCCCCCCC(=O)OCN1CCN(c2cc3c(cc2F)c(=O)c(C(=O)O)cn3C2CC2)CC1)OCN1CCN(c2cc3c(cc2F)c(=O)c(C(=O)O)cn3C2CC2)CC1
MBC (Staphylococcus aureus [7]): 250 µM (≈ 236 µg/mL)
MIC (Staphylococcus aureus [7]): 62.5 µM (≈ 59.1 µg/mL)
MBC (Staphylococcus aureus [8]): 62.5 µM (≈ 59.1 µg/mL)
MIC (Staphylococcus aureus [8]): 31.2 µM (≈ 29.5 µg/mL)
MBC (Staphylococcus aureus [9]): 0.48 µM (≈ 0.454 µg/mL)
MBC (Pseudomonas aeruginosa): 125 µM (≈ 118 µg/mL)
MIC (Pseudomonas aeruginosa): 62.5 µM (≈ 59.1 µg/mL)
MBC (Escherichia coli): 62.5 µM (≈ 59.1 µg/mL)
MIC (Escherichia coli): 31.2 µM (≈ 29.5 µg/mL)
MBC (Staphylococcus aureus [11]): 3.9 µM (≈ 3.69 µg/mL)
MIC (Staphylococcus aureus [11]): 0.97 µM (≈ 0.917 µg/mL)
IC50 (MCF7): 9 µM
IC50 [1]: 3 µM
inhibition of growth at 10 µM [2]: 87%
MBC (Enterococcus hirae): 15.6 µM (≈ 14.7 µg/mL)
MIC (Enterococcus hirae): 15.6 µM (≈ 14.7 µg/mL)
growth inhibition (GI) [4]: inactive
MBC (Staphylococcus aureus [6]): ≤ 0.97 µM
MIC (Staphylococcus aureus [6]): ≤ 0.97 µM

O=C(O)c1cn(C2CC2)c2cc(N3CCNCC3)c(F)cc2c1=O [CIPROFLOXACIN]
MBC (Staphylococcus aureus [7]): 62.5 µM (≈ 20.7 µg/mL)
MIC (Staphylococcus aureus [7]): 31.2 µM (≈ 10.3 µg/mL)
MBC (Staphylococcus aureus [8]): 31.2 µM (≈ 10.3 µg/mL)
MIC (Staphylococcus aureus [8]): 31.2 µM (≈ 10.3 µg/mL)
MBC (Staphylococcus aureus [9]): 0.97 µM (≈ 0.321 µg/mL)
MIC (Staphylococcus aureus [9]): 0.48 µM (≈ 0.159 µg/mL)
MBC (Pseudomonas aeruginosa): ≤ 0.97 µM
MIC (Pseudomonas aeruginosa): ≤ 0.97 µM
MBC (Escherichia coli): ≤ 0.97 µM
MIC (Escherichia coli): ≤ 0.97 µM
MBC (Staphylococcus aureus [11]): 1.9 µM (≈ 0.63 µg/mL)
MIC (Staphylococcus aureus [11]): 0.97 µM (≈ 0.321 µg/mL)
MBC (Enterococcus hirae): 1.9 µM (≈ 0.63 µg/mL)
MIC (Enterococcus hirae): ≤ 0.97 µM
growth inhibition (GI) [4]: inactive
IC50 [5]: 1.6 µM
MIC [5]: 2.5 µM (≈ 0.828 µg/mL)
MBC (Staphylococcus aureus [6]): ≤ 0.97 µM
MIC (Staphylococcus aureus [6]): ≤ 0.97 µM

CCCCCCCCCCCC(=O)OCC(=O)N1CCN(c2cc3c(cc2F)c(=O)c(C(=O)O)cn3C2CC2)CC1
MBC (Staphylococcus aureus [7]): 500 µM (≈ 286 µg/mL)
MIC (Staphylococcus aureus [7]): 125 µM (≈ 71.5 µg/mL)
MBC (Staphylococcus aureus [8]): 250 µM (≈ 143 µg/mL)
MIC (Staphylococcus aureus [8]): 62.5 µM (≈ 35.7 µg/mL)
MBC (Staphylococcus aureus [9]): 0.97 µM (≈ 0.555 µg/mL)
MIC (Staphylococcus aureus [9]): 0.06 µM (≈ 0.0343 µg/mL)
MBC (Pseudomonas aeruginosa): 250 µM (≈ 143 µg/mL)
MIC (Pseudomonas aeruginosa): 62.5 µM (≈ 35.7 µg/mL)
MBC (Escherichia coli): 250 µM (≈ 143 µg/mL)
MIC (Escherichia coli): 125 µM (≈ 71.5 µg/mL)
MBC (Staphylococcus aureus [11]): 3.9 µM (≈ 2.23 µg/mL)
MIC (Staphylococcus aureus [11]): 1.9 µM (≈ 1.09 µg/mL)
IC50 [1]: 49 µM
inhibition of growth at 10 µM [2]: > 95%
MBC (Enterococcus hirae): 7.8 µM (≈ 4.46 µg/mL)
MIC (Enterococcus hirae): 7.8 µM (≈ 4.46 µg/mL)
growth inhibition (GI) [4]: inactive
MBC (Staphylococcus aureus [6]): ≤ 0.97 µM
MIC (Staphylococcus aureus [6]): ≤ 0.97 µM
